In article PMC10060569 (Frontiers in Pharmacology, 2023):

Biological target: T1, N190A/S15V-hP2X3R (Homo sapiens, UniProt P56373, N190A/S15V)
T1 construct: expressed in transfected cells; host or cells: Xenopus laevis oocytes (cRNA injection)
T1 sequence (P56373 1-397 S15V/N190A): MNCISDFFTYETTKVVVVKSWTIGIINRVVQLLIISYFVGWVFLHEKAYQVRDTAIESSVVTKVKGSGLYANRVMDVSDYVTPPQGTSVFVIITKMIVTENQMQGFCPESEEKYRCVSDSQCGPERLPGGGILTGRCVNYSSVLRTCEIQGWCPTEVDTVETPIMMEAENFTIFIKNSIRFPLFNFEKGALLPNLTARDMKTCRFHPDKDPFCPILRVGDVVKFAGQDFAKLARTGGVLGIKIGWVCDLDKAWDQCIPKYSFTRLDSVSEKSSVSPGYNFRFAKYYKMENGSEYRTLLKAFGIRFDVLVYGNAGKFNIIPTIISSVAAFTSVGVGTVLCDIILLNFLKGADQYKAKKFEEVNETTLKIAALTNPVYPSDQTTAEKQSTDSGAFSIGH
Assay: TEVC of ATP-induced currents, N190A/S15V-hP2X3R mutant in X. laevis oocytes
Assay type: cell-based
Conditions: read-out: % inhibition of 10 µM ATP-induced currents by 10 µM diclofenac
Method: Ion currents mediated by P2X receptors were evoked by the indicated concentration of ATP or α,β-meATP and were recorded 1 or 2 days after cRNA injection at ambient temperature at a holding potential of −60 mV by two-electrode voltage clamp (TEVC) as previously described ([Hausmann et al., 2006]). Calcium-free ORi^− solution (90 mM NaCl, 1 mM KCl, 2 mM MgCl2, 10 mM HEPES, pH 7.4) was used to avoid bias due to calcium-activated chloride channels (CaCC) endogenously expressed in X. laevis oocytes ([Miledi, 1982]; [Methfessel et al., 1986]). […]
In the case of fast-desensitizing P2XR subtypes (P2X1R and P2X3R), ATP is applied five times in repetition, and the ATP-induced current amplitude in the presence (after pre-incubation) of the antagonist (fourth application) is compared to the arithmetic mean of flanking control ATP-induced current amplitudes in the absence of the antagonist (third and fifth ATP application). […] The correction factor was calculated as the ratio of the fourth ATP-induced current amplitude to the third amplitude (Eq. 3) when the experiment was performed in the absence of the antagonist. […] Since the magnitude of the run-down varies from day to day and batch to batch of oocytes, the correction factor was determined on each day of the experiments and was calculated as the arithmetic mean of several recordings (at least 3–5 and on average 5) on each day. […]

O=C(O)Cc1ccccc1Nc1c(Cl)cccc1Cl [Diclofenac, diclofenac]
inhibition at 10 µM: 8.1%
